Results on four compounds are retold here after US20050266509A1, “Interaction of NMDA receptor with protein tyrosine phosphatase” (AGY Therapeutics, Inc., priority 2003, published 2005).

“Also recorded” adds a separate entry of the source.

Experiment [1] addresses T1, PTPMEG (Homo sapiens, UniProt P29074).
T1 construct: expressed in transfected cells
T1 sequence (P29074 1-926): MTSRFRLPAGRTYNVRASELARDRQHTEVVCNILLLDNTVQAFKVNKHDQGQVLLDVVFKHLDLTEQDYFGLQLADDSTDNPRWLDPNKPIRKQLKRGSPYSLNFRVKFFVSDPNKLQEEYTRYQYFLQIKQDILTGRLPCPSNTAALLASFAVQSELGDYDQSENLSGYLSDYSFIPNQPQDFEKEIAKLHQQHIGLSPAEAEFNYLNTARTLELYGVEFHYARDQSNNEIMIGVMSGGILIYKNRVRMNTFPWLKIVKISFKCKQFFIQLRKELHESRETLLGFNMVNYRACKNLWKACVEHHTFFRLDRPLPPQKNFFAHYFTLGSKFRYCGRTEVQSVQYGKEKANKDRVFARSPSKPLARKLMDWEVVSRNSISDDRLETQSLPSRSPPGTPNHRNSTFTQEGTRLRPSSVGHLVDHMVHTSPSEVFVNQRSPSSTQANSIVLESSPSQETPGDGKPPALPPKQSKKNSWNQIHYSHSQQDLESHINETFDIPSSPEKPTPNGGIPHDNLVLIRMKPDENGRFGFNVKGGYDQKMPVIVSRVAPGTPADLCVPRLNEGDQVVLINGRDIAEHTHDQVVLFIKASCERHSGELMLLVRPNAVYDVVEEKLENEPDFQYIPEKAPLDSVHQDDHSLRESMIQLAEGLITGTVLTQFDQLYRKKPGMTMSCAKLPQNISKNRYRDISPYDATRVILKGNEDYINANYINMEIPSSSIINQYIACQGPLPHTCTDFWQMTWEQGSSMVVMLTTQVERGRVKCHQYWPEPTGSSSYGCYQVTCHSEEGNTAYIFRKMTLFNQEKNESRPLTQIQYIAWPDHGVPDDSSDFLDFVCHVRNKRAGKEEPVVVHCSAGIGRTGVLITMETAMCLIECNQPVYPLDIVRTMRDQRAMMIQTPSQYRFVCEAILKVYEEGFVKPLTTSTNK
The experiment is described as follows: Western blot of Src/fyn Y418 phosphorylation in NR1/NR2B stable cell line transfected with active Src or fyn and PTPMEG. Type of experiment: cell-based. Particulars: 500 μM, 3 hours, 48 hrs post-transfection. From the text: PTPMEG Dephosphorylates Protein Kinases Src and fyn. A stable cell line expressing the NR1 and NR2B subunits of the NMDA receptor was transiently transfected with constitutive active Src Srcor constitutive active fyn (fyn Y530F, where the tyrosine at position 530 is substituted by a phenylalanine) and PTPMEG, from a full length PTPMEG (amino-terminal myc-tag, c-terminal HA tag) expression construct in the pRK5 vector, with a CMV-driven promoter.
48 hrs post-transfection the cells were stimulated with 500 μM sodium orthovanadate, a […] for 3 hours. Cells were lysed and analyzed by western blot using a Src/fyn specific phosphoantibody (from Biosource) that recognizes the residue Y418 critical for activity for both Src and fyn. In presence of PTPMEG (identified with a c-myc antibody from Upstate) there is a dephosphorylation of Src and fyn at position Y418. This dephosphorylation is reversed by sodium orthovanadate. A pan Src antibody that recognizes total Src and fyn is used as a loading control.

Experiment [2] concerns the target T2, PTPMEG (Homo sapiens, UniProt P29074).
T2 construct: Asp-Ser-6xHis (N); made in house; host or cells: E. coli BL21(DE3)
T2 sequence (P29074 655-911 limits assumed): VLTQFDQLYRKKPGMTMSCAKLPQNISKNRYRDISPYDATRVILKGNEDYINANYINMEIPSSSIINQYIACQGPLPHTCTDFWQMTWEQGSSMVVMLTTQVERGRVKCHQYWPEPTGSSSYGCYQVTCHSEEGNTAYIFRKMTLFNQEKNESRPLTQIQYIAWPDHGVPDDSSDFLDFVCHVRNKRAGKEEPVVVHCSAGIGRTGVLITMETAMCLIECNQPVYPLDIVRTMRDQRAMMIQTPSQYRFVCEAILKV
The experiment is described as follows: TR-FRET phosphatase activity assay, PTPMEG. Type of experiment: biochemical. How it is done:
Expression and Purification of PTPMEG The DNA sequence encoding the C-terminal 326 residues of PTPMEG (phosphatase domain) was subcloned into the pET-17b vector (Novagen) between the Ndel and Xhol restriction sites. An N-terminal tag consisting of Asp-Ser-6×His was incorporated at the beginning of the protein sequence. Protein expression was performed in BL21(DE3) cells at 37° C. with a 4 hour 0.5 mM IPTG induction. The cells were harvested by centrifugation and stored at −80° C. until needed for protein purification. Protein purification consisted of cell lysis by sonication, immobilized metal affinity chromatography (IMAC) on a Ni^2+-NTA column (Qiagen), followed by hydrophobic interaction chromatography (HIC) on a phenyl sepharose column (Amersham Pharmacia Biotech) and/or ion exchange chromatography (IEC) on a Q sepharose column (Amersham Pharmacia Biotech). The purified 38.3 kDa protein was buffer exchanged into 50 mM HEPES, pH 7.5 and stored at −80° C.
Phosphatase Buffer: 50 mm HEPES, pH 8; 1 mM DDT; 2 mM EDTA; 0.01% Brij solution; 10 mM MgCl2. […]
The plates are then placed in the plate reader, an Analyst HT. […] Fluorescence resonance energy transfer (FRET) from Eu-Ab to APC will only occur when they are in close proximity. […]
A general note: In TR-FRET formats the signal depends on donor and acceptor labels being close together.

For the next experiment, the target named is T3, CD45 (Homo sapiens, UniProt P08575).
T3 sequence (P08575 26-1306): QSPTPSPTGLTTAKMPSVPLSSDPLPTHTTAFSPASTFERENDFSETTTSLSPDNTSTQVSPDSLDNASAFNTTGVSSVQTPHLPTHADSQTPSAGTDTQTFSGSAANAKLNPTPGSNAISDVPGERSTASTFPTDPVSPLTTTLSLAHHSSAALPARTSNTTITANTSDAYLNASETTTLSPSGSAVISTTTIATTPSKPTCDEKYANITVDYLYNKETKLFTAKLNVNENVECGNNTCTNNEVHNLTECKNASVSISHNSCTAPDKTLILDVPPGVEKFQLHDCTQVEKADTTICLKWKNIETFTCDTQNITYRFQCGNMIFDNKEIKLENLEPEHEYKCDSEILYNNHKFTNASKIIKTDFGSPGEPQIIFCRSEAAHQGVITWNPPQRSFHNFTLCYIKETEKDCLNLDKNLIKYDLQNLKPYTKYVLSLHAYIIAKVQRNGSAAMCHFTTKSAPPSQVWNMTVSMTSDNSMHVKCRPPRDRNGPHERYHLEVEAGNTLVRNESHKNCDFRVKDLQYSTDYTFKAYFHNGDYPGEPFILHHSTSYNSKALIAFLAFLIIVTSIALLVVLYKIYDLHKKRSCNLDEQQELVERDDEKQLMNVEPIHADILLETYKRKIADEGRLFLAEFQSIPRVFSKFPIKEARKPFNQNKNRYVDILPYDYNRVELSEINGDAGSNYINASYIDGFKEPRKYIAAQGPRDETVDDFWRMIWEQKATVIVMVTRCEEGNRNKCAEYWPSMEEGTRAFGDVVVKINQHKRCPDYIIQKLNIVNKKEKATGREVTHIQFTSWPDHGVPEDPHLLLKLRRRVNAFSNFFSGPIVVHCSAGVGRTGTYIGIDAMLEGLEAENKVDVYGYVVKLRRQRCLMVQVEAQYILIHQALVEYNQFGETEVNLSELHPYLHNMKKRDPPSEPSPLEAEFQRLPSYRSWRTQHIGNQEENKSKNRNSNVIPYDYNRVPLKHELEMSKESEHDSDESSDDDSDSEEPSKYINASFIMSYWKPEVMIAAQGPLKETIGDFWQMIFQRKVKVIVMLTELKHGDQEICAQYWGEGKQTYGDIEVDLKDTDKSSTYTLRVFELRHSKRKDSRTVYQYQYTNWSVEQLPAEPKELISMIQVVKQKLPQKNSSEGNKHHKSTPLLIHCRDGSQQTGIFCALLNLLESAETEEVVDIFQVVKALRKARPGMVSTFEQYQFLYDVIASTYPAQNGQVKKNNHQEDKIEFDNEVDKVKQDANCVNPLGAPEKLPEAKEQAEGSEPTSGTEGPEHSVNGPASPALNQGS
As to the kind of experiment: FRET phosphatase assay, CD45. Type of experiment: biochemical. The protocol:
(§1) For the enzyme activity assay, 2.5 μl of compound, 12.5 μl of enzyme, and 10 μl of substrate (separated by air gaps) are added to columns 3 through 24 by the Biomek FX in a single dispense. After the dispense, the tips are washed with DMSO and water for re-use between each quadrant. Once the assay plates are set up, they are incubated at 27° C. for 45 minutes. Then 20 μl of detection buffer is added to stop the reaction and to allow the Europium antibody (Eu-Ab) and streptavidin-APC to bind to the substrate.
(§2) The plates are then placed in the plate reader, an Analyst HT. Excitation light at 360 nm is used to excite the Europium antibody with an emission at 620 nm. Fluorescence resonance energy transfer (FRET) from Eu-Ab to APC will only occur when they are in close proximity. Therefore, when an APC emission is observed at 665 nm the enzyme has been inhibited from removing the phosphate group from the substrate. The FRET assay is time-resolved (TR), where there is a delay between excitation light and collection of emission signals. This reduces the amount of stray light created by short-lived fluorescing molecules. The Analyst HT measures APC and Europium emission signals and calculates the ratio between the two intensities. Typical intensities for the Europium is ˜2000 and APC is ˜600.
(§3) The following compounds were tested by FRET against the listed phosphatases, and the IC50 were obtained. […]

A further experiment concerns the target PTPB (Homo sapiens, UniProt P23467). As to the kind of experiment: FRET phosphatase assay, PTPB. In kind it is biochemical. How it is done:
as §1, §2, §3

For another experiment, the target named is T4, T Cell (Homo sapiens, UniProt P17706).
T4 sequence (P17706 1-415): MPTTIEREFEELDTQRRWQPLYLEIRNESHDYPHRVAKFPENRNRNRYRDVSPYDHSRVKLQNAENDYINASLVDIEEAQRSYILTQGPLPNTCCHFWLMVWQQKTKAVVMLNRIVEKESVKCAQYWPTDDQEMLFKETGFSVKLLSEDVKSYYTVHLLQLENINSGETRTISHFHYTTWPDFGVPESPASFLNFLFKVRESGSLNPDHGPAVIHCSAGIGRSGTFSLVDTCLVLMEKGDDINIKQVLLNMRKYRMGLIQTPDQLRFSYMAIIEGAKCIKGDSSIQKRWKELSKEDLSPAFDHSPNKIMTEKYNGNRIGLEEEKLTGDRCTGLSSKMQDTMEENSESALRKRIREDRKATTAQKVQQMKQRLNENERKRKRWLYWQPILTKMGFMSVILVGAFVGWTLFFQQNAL
The experiment is described as follows: FRET phosphatase assay, T Cell. Type of experiment: biochemical. How it is done: as §1, §2, §3

Another experiment has as its system mice. The experiment is described as follows: Amphetamine-induced hyperactivity model (open field). Particulars: 5 mg/kg SC, 60 min recording period.
In experiment [3] the target is T1, PTPMEG. The experiment is described as follows: Western blot of NR2B and Src phosphorylation in NR1/NR2B stable cell line transfected with active Src and PTPMEG. In kind it is cell-based. Particulars: 48 h post transfection. The protocol:
A stable cell line, expressing the NMDA receptor subunit NR1 together with NR2B was transiently transfected with constitutive active Src kinase and PTPMEG, wildtype and dominant negative CS mutant, respectively. Control experiments included dephostatin, a generic tyrosine phosphatase inhibitor. 48 h post transfection cells were lysed and subsequently analyzed by western blot. In presence of the active wildtype PTPMEG phosphatase, both the NR2B subunit as well as Src kinase were dephosphorylated, shown in FIG. 3. […] NR2B phosphorylation by Src kinase was detected by an NR2B phosphospecific antibody. Dephosphorylation of NR2B and Src kinase was reversed by addition of dephostatin, and unaffected in presence of the dominant negative form of PTPMEG (CS). (FIG. 5)
(In general: Immunoblotting shows a protein as a band on a membrane.)

Chain of PTPB (P23467 1643-1997 limits assumed): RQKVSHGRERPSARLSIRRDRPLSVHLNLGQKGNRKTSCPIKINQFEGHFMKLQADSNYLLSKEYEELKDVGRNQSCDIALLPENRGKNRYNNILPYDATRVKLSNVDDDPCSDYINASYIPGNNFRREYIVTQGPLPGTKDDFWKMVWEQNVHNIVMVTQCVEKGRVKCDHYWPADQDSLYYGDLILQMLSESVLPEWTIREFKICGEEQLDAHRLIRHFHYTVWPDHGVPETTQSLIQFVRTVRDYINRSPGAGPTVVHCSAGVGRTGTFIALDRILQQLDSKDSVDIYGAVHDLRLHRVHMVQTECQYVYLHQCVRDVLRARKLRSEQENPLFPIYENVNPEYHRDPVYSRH

Turning to `[Na+].[Na+].[Na+].[O]=[V]([O-])([O-])[O-]` [sodium orthovanadate], the “Dephosphorylation of Src and fyn at position Y418 by PTPMEG” value on PTPMEG [1] was “reversed”.

By IC50 is commonly meant the concentration that inhibits the measured activity by half. A high value points to a need for much substance. `O=C(O)CN1C(=O)c2cccc3cccc1c23` [AGY- 0041763]: the half-maximal inhibitory concentration (IC50) on PTPMEG [2] is 0.56 µM; at CD45, greater than 500 µM; against PTPB it was greater than 500 µM; on T Cell, greater than 500 µM.

Consider `C[C@H](N)Cc1ccccc1` [d-amphetamine], for which the “Locomotion (total distance in the open field)” value in the experiment on mice is on record as “significantly increases”.

With `CN(N=O)c1cc(O)ccc1O` [dephostatin], the “Dephosphorylation of NR2B by PTPMEG” value at PTPMEG [3] (NR2B phosphospecific antibody western blot) is listed as “reversed”. Besides, at PTPMEG [3] (anti PY418 western blot), the “Dephosphorylation of Src kinase (position 418) by PTPMEG” value was “reversed; also recorded: restores phosphorylation”.
